Measurements: a polymer gas permeability compilation

CH4 permeability [Barrer]	CO2 permeability [Barrer]	H2 permeability [Barrer]	N2 permeability [Barrer]	O2 permeability [Barrer]	SMILES
24700	35800	23600	10200	12700	*C(=C(*)c1ccc2c(c1)C(C)(C)C(C)(C)C2(C)C)c1ccccc1 (repeat unit)
0.0311	0.963		0.0398	0.259	*Oc1ccc(Oc2ccc(C(=O)c3ccc(*)cc3)cc2)cc1 (repeat unit)
0.221	4.65		0.217	1.39	*Oc1ccc(Oc2ccc(C(=O)c3ccc(*)cc3)cc2)cc1C(C)(C)C (repeat unit)
0.18	4.3	15	0.196	1.1	*Oc1ccc(Oc2ccc(Oc3ccc(S(=O)(=O)c4ccc(*)cc4)cc3)cc2)cc1 (repeat unit)
0.83	19	35	1.12	6.6	*Oc1ccc(Oc2cccc(*)c2C#N)c(-c2cc(C(F)(F)F)cc(C(F)(F)F)c2)c1 (repeat unit)
0.06	3.5	9.6	0.17	0.94	*Oc1ccc(Oc2cccc(*)c2C#N)c(-c2cc(C)cc(C)c2)c1 (repeat unit)
0.09	3.7	9.3	0.15	0.87	*Oc1ccc(Oc2cccc(*)c2C#N)c(-c2cccc(C(F)(F)F)c2)c1 (repeat unit)
0.05	1.9	6.8	0.07	0.45	*Oc1ccc(Oc2cccc(*)c2C#N)c(-c2cccc(C)c2)c1 (repeat unit)
0.5	10.8	20.1	0.469	2.39	*Oc1ccc(S(=O)(=O)c2ccc(-c3ccc(S(=O)(=O)c4ccc(Oc5ccc(C(C)(C)c6ccc(*)cc6)cc5)cc4)cc3)cc2)cc1 (repeat unit)
1.27	31.8		1.21	5.8	*Oc1ccc(S(=O)(=O)c2ccc(Oc3c(C)cc(-c4cc(C)c(*)c(C)c4)cc3C)cc2)cc1 (repeat unit)
0.522	21	15.5	1.06	5.6	*Oc1ccc(S(=O)(=O)c2ccc(Oc3c(C)cc(C(C)(C)c4cc(C)c(*)c(C)c4)cc3C)cc2)cc1 (repeat unit)
0.255	5.6		0.236	1.3	*Oc1ccc(S(=O)(=O)c2ccc(Oc3ccc(-c4ccc(*)cc4)cc3)cc2)cc1 (repeat unit)
0.0706	2.1		0.0914	0.64	*Oc1ccc(S(=O)(=O)c2ccc(Oc3ccc(C(C)(C)c4ccc(*)c(C)c4)cc3C)cc2)cc1 (repeat unit)
0.11	1.95		0.11	0.7	*Oc1ccc(S(=O)(=O)c2ccc(Oc3ccc(C(C)(C)c4ccc(*)cc4)cc3CN)cc2)cc1 (repeat unit)
0.08	2.12		0.08	0.54	*Oc1ccc(S(=O)(=O)c2ccc(Oc3ccc(C(C)(C)c4ccc(*)cc4)cc3CN3C(=O)c4ccccc4C3=O)cc2)cc1 (repeat unit)
0.12	2.95		0.12	0.745	*Oc1ccc(S(=O)(=O)c2ccc(Oc3ccc(C(C)(C)c4ccc(*)cc4)cc3N)cc2)cc1 (repeat unit)
0.0432	1.5		0.0661	0.39	*Oc1ccc(S(=O)(=O)c2ccc(Oc3ccc(C(C)(C)c4cccc(*)c4)cc3)cc2)cc1 (repeat unit)
0.32	8.12		0.278	1.56	*Oc1ccc(S(=O)(=O)c2ccc(Oc3ccc(C(C)(c4ccccc4)c4ccc(*)cc4)cc3)cc2)cc1 (repeat unit)
0.531	13.8		0.484	2.76	*Oc1ccc(S(=O)(=O)c2ccc(Oc3ccc(C4(c5ccc(*)cc5)c5ccccc5-c5ccccc54)cc3)cc2)cc1 (repeat unit)
0.0364	1.6	8.1	0.0568	0.42	*Oc1ccc(S(=O)(=O)c2ccc(Oc3cccc4c(*)cccc34)cc2)cc1 (repeat unit)
1.14	18.9		1	5.31	*Oc1ccc2c(c1)C1(CC2(C)C)CC(C)(C)c2ccc(OC(=O)c3cccc(C(*)=O)c3)cc21 (repeat unit)
0.155	4.5		0.203	1.4	*Oc1ccc2c(c1)C1(CC2(C)C)CC(C)(C)c2ccc(Oc3ccc4c(c3)C(=O)N(c3cccc(N5C(=O)c6ccc(*)cc6C5=O)c3)C4=O)cc21 (repeat unit)
0.052	1.5	8	0.066	0.39	*Oc1cccc(C(C)(C)c2ccc(Oc3ccc(S(=O)(=O)c4ccc(*)cc4)cc3)cc2)c1 (repeat unit)
0.036	1.6		0.057	0.42	*Oc1cccc2c(Oc3ccc(S(=O)(=O)c4ccc(*)cc4)cc3)cccc12 (repeat unit)
390	3940	1920	257	722	*c1c(C)c(C)c(N2C(=O)c3cc4c(cc3C2=O)C2(CC(C)(C)c3cc5c(cc32)C(=O)N(*)C5=O)CC4(C)C)c(C)c1C (repeat unit)
45.2	734	434	37.8	87	*c1c(C)c(C)c(N2C(=O)c3ccc(C(c4ccc5c(c4)C(=O)N(*)C5=O)(C(F)(F)F)C(F)(F)F)cc3C2=O)c(C)c1C (repeat unit)
7.6	200	230	8.1	33	*c1c(C)c(C)c(N2C(=O)c3ccc(Oc4cc(C)c(Oc5ccc6c(c5)C(=O)N(*)C6=O)c(C)c4C)cc3C2=O)c(C)c1C (repeat unit)
23.9	329		22	83.4	*c1c(C)c2c(c(N3C(=O)c4ccc(-c5ccc6c(c5)C(=O)N(*)C6=O)cc4C3=O)c1C)C(C)(C)CC2 (repeat unit)
10.3	161		10.3	43.9	*c1c(C)c2c(c(N3C(=O)c4ccc(Oc5ccc6c(c5)C(=O)N(*)C6=O)cc4C3=O)c1C)C(C)(C)CC2 (repeat unit)

SMILES	CH4 permeability [Barrer]	CO2 permeability [Barrer]	H2 permeability [Barrer]	N2 permeability [Barrer]	O2 permeability [Barrer]
*/C(C)=C(/*)[Si](C)(C)CCC (repeat unit)	44	230	250	21	70
